Legend:
[1] = tested on: AOX1; conditions: human, in vivo
Method: (§1) Blood samples for pharmacogenomic analysis were collected and all samples anonymised for subsequent storage, assay and analysis. The impact on Cmax and AUC of genetic polymorphisms of CYP2D6, which is assumed to make some contribution to the hydroxylation of TP3076, but not TP3011, AOX1, which metabolises TP3076 to TP3011, and UGT1A1, which metabolises SN-38 to its glucuronide, but is not believed to influence TP300 metabolism were explored. The analysis was performed with the invader method or polymerase chain reaction (PCR)-invader method for single nucleotide polymorphisms (SNPs) of CYP2D6 and UGT1A1 *28 and with the long-PCR method for deletion of CYP2D6 and UGT1A1 gene. AOX1 SNPs were analysed by a direct sequencing method. Genomic DNAs were extracted from frozen peripheral blood of 31 subjects using an automated DNA extractor BioRobotMDx and commercial DNA purification kits (Qiagen). Quality and quantity of the DNAs were checked by the measurement of absorbencies at 260 nm and 280 nm. Primers were designed to amplify all the 35 exons of Aldehyde oxidese 1 gene (NCBI accession No. NM_001159) including some intronic flanking regions. The specificity of PCR conditions was confirmed by the agarose gel electrophoresis. Amplicons were prepared twice for every exons. The amplicons were subsequently treated with ExoSAP-IT (GE Healthcare) followed by the reactions with a cycle sequencing kit (BigDye Terminator v3.1, Applied Biosystems). The fragments obtained were purified using X-Terninator purification kit (Applied Biosystems) and analysed on an automated DNA sequencer (3730xl DNA Analyzer, Applied Biosystems). The resulted sequences were compared against the reference sequence using the variant reporter software (Applied Biosystems).

[2] = tested on: UGT1A1; conditions: human, in vivo
Method: as §1

[3] = tested on: CYP2D6; set-up: species or system human; conditions: in vivo
Method: as §1, with “The specificity of PCR conditions was confirmed by the agarose gel electrophoresis. Amplicons were prepared twice for every exons. The amplicons were subsequently treated with ExoSAP-IT (GE Healthcare) followed by the reactions with a cycle sequencing kit (BigDye Terminator v3.1, Applied Biosystems).” left out, “The resulted sequences were compared against the reference sequence using the variant reporter software (Applied Biosystems).” left out

[4] = tested on: HCT-116 colorectal cancer cells; set-up: method as in PMID 19254843; conditions: HCT-116 colorectal cancer cells in vitro; cited from earlier work
[5] = Plasma and urine pharmacokinetics after TP300 infusion (LC-MS/MS, non-compartmental); format: in vivo, human; conditions: for fe (urinary excretion ratio): urine up to 48 hours, mean
Method: Venous blood (3 mL) was taken into sodium heparin tubes containing 30 μL of 46% citric acid, centrifuged 1500g at 4°C for 10 min and 1 mol/L hydrochloric acid was added (1:10) to plasma from each subject at 10 time points during cycle 1 (pre dose, then 1, 1.25, 1.5, 2, 3, 5, 8, 24, 48 hours after the start of administration) and stored at −70°C. Samples were processed by extraction of protein using addition of organic solvent containing internal standards and assayed by LC-MS/MS with a robust, sensitive and validated method for the simultaneous determination of a novel topoisomerase 1 inhibitor CH0793076 (TP3076), the prodrug CH4556300 (TP300), and the active metabolite CH0793011 (TP3011). All plasma had been acidified during collection to avoid the pH-based degradation of TP300 and to shift the equilibria of TP3076 and TP3011 between the lactone and carboxylate forms towards the lactone forms. After the plasma proteins were precipitated with methanol:acetonitrile:HCl 1M (50:50:1, v:v:v) containing stable isotopic internal standards, the analytes were trapped on an Xterra MS C18 column (10×2.1 mm i.d., 5 μm) and separated on a Gemini C18 column (50×2.0 mm i.d., 5 μm) using column-switching liquid chromatography. Electrospray ionization in the positive-ion mode and multiple reaction monitoring were used to quantify the analytes with transitions m/z 587.2>441.2 for TP300, 459.1>415.2 for 3076, and 475.1>361.1 for 3011. The inter- and intra-day precisions were below 12%, and the accuracy was between −16% and 16% at the lower limit of quantitation (LLOQ) and between −11% and 14% at the other quality controls. The LLOQs of TP300, TP3076, and TP3011 were 0.8, 0.04, and 0.04 ng/mL, respectively.
Pharmacokinetic parameters derived from plasma concentration-time data of TP3076 or TP3011 by non-compartmental methods using WinNonlin (version 5.1; Pharsight Corp), included maximal plasma concentration (Cmax) and time of Cmax (Tmax), apparent plasma elimination half-life (t1/2), and the area under the curve (AUC). The urinary excretion ratio (fe) of TP3076 and TP3011 was calculated from the urinary concentration and volume up to 48 hours after administration, and the administration dose. The linearity of Cmax and AUC was determined with linear regression, analysis of variance and power model analysis. The sum of the AUCs of TP3076 and TP3011 was plotted against percentage (%) fall in nadir neutrophil count to explore the relationship between exposure and myelosuppression as a measure of anti-proliferative effect and a sigmoid Emax model fitted to the data: […]

[6] = tested on: Topo-1; set-up: method as in PMID 19495753; conditions: cited from earlier work
[7] = set-up: method as in PMID 10873073; conditions: irinotecan 350 mg/m^2, 3-weekly dosing regimen; cited from earlier work
[8] = TP300 1 mg/m^2 1-hour i.v. infusion, N=3
[9] = TP300 2 mg/m^2 1-hour i.v. infusion, N=3
[10] = TP300 4 mg/m^2 1-hour i.v. infusion, N=3
[11] = TP300 6 mg/m^2 1-hour i.v. infusion, N=3
[12] = TP300 8 mg/m^2 1-hour i.v. infusion, N=3
[13] = TP300 10 mg/m^2 1-hour i.v. infusion, N=12
[14] = TP300 12 mg/m^2 1-hour i.v. infusion, N=4

SMILES | difference of exposure (Cmax, AUC) among AOX1 (c3404A > G) genotypes [1] | difference in exposure (Cmax, AUC) among UGT1A1*28 genotypes [2] | exposure in CYP2D6 extensive metabolisers [3] | IC50 [4] | fe (urinary excretion ratio) [5, 8] | fe (urinary excretion ratio) [5, 9] | fe (urinary excretion ratio) [5, 10] | fe (urinary excretion ratio) [5, 11] | fe (urinary excretion ratio) [5, 12] | fe (urinary excretion ratio) [5, 13] | fe (urinary excretion ratio) [5, 14] | Urinary excretion ratios ([5]; human, in vivo) | dose dependence of Cmax and AUC ([5]; human, in vivo) | Tmax ([5]; human, in vivo, Tmax) | half-life ([5]; human, in vivo, iv, t1/2) | Topo-1 inhibition relative to SN38 [6] | Tmax ([5]; human, in vivo, iv, tmax) | Glucuronidated TP3076 (detection) ([5]; in vivo) | AUC of SN-38 at which DLTs occur [7]
CCCCCN1C(=O)Nc2cccc3nc4c(c1c23)Cn1c-4cc2c(c1=O)COC(=O)[C@]2(O)CC [TP3011] | no apparent significant difference | no apparent significant difference | slight decrease | sub-nanomolar range | 0.792% | 0.739% | 0.796% | 0.593% | 0.594% | 1.10% | 1.99% | at most 6% | increased proportionately | 3 to 5 h | 6.92 h | equipotent | – | – | –
CCCCCN1C=Nc2cccc3nc4c(c1c23)Cn1c-4cc2c(c1=O)COC(=O)[C@]2(O)CC [TP3076] | no apparent significant difference | no apparent significant difference | slight reduction | sub-nanomolar range | 2.45% | 2.87% | 1.31% | 1.78% | 1.71% | 3.09% | 6.33% | at most 6% | increased proportionately | 1 h | – | equipotent | 1.26 h | not detected | –
CCc1c2c(nc3ccc(O)cc13)-c1cc3c(c(=O)n1C2)COC(=O)[C@]3(O)CC [SN-38] | – | – | – | – | – | – | – | – | – | – | – | – | – | – | – | – | – | – | 1.5 µM·h
